Structures can show the parent of a compound that is named as a salt. Where two headings read alike, the source gives them in different places.
How the values were obtained:
Morphine-dependent Mice = format: in vivo, mouse; settings: for Jumping Mice/Survived Mice, Day 1 after stopping drug / Jumping Mice/Survived Mice, Day 4 after stopping administration / Jumping Mice/Survived Mice, Day 5 of treatment: nalorphine 50 mg/kg
Protocol: In the first 4 days, administration was given once per 6 hours, four times a day. From day 5 through day 7, administration was given once every 8 hours, three times a day. On day 5 and day 8 of treatment, respectively, subcutaneous injections of nalorphine (50 mg/kg) were made to […].

mice [1] = system: mice
Protocol: In another case, male mice weighing 18-22 g were divided into four groups (10 for every group). Two groups of mice were injected subcutaneously with lappaconitine hydrobromide 7 times within 2 days. The initial dosage was 3.5 mg/kg. Then, additional doses of 0.5 mg/kg and 1.0 mg/kg were given for every injection in each group, respectively. […] The initial dosage was 2.5 mg/kg and an escalating dose schedule of 5, 10, 20, 30, 40, 50 mg/kg was applied. The fourth group of mice was used as control group and was given physiological saline. Two hours after the last injection, all the mice of the above four groups were injected with 50 mg/kg nalorphine through the intraperitoneal cavity. The number of jumps within 10 minutes in each group of mice were recorded.

mice [2] = system: mice; remark: listed apart in the source
Protocol: Male mice weighing 18~22 g were used for the test and divided into 3 groups (10 for every group). […] The second group of mice was given a subcutaneous injection of lappaconitine hydrobromide (8 mg/kg) for 20 days. The third group was a control group and was given physiological saline. 6 hours after being given the last dose, all the mice were given an intraperitoneal injection of 10 mg/kg allyl dromaran, and then were placed in a cone cylinder cage (diameter=30 cm, height=35 cm). The number of jumps for each mouse in 60 minutes was recorded.

[3] = format: in vivo, Wister rat; settings: 8 to 14 mg/kg ip escalated, until day 28
Protocol: Another ten Wister rats were medicated with successively escalated doses, in other words, the rats were first injected with lappaconitine (8 mg/kg) intraperitoneally. After one week with 10 mg/kg; after 2 weeks with 12 mg/kg; after 16 days with 14 mg/kg; and the last dose was maintained until day 28.

Morphine-dependent rats = format: in vivo, Wister rat
Protocol: Wister male rats weighing 200-250 g were divided into 3 groups (10 for each group).
II Physiological saline 2 ml/kg. sc
III Lappaconitine hydrobromide 8 mg/kg. sc

Macaca mulatta = assay: Monkey addiction test (lappaconitine); format: in vivo
Protocol: Three of 6 Macaca mulatta weighing 2.75~4.75 kg were subcutaneously injected with lappaconitine twice a day. The initial dosage is 0.1 mg/kg, and the dose was successively escalated to the maximum tolerance dosage, 2 mg/kg within 50 days. Then, the tolerance dosage was maintained to the 53rd day, 67th day and 92nd day, respectively. […] On day 63 and day 92, the injections of lappaconitine to the monkeys was stopped. […] On day 29, 53, 59, 67 and 90, injections to the monkeys were discontinued and after 18 hours, subcutaneous injection of nalorphine (4 or 8 mg/kg) were given.

[4] = system: mice dependent on cocaine
Protocol: In the same way as described above, subcutaneous injection of cocaine (10 mg/kg) were given to the mice twice a day, and the injection was continued for 7 days.

[5] = Subacute toxicity Test, monkeys; format: in vivo, Macca Mulatta
Protocol: Three Macca Mulatta weighing 2.75~4.75 kg were injected with lappaconitine subcutaneously twice a day. Initiated with 0.1 mg/kg, the dosage was increased successively to the highest tolerated dosage, 2 mg/kg within 50 days, and the last dosage was maintained to day 53, day 67 and day 92, respectively. The accumulated injective dosage was 196, 400 and 635 mg, respectively.

[6] = Acute Toxicity Test, rats; format: in vivo, rat
[7] = Acute Toxicity Test, mice; format: in vivo, mouse; settings: for LD50: mouse, in vivo, read-out: LD50 (95 % confidence limit)
[8] = format: in vivo, Wister rat; settings: 5 or 10 mg/kg ip a day, 30 days
Protocol: Ten Wister rats weighing 200~250 g were divided into 2 groups (5 for each group). Each group was given intraperitoneal injection of 5 mg/kg or 10 mg/kg of lappaconitine a day, respectively. The injection was continued for 30 days. 5 wister rats of a control group were given subcutaneous injections of saline (2 ml/kg). […].

[9] = system: morphine-dependent monkeys
[10] = Acute Toxicity Test, monkeys; format: in vivo, Macca Mulatta
[11] = oral methadone vs injected morphine; cited from earlier work
[12] = 0.45 mg/g sc (so in the source)
[13] = nalorphine 50 mg/kg, 2 days: lappaconitine initial 3.5 mg/kg, total 45.5 mg/kg, 5 mice tested
[14] = 0.1 to 2 mg/kg sc twice a day, to day 53, 67 and 92

Question: With CCN1CC2(O)CCC(OC)C34C1C(CC23)C1(O)CC(OC)C2CC4C1(O)C2OC (stereo not shown) [Lappaconine hydrobromide, lappaconine hydrobromide] as the molecule, how does the “Jumping Mice/Survived Mice, Day 1 after stopping drug” value (Morphine-dependent Mice; 5 mg/g (so in the source) sc) read?
Answer: 0/10

Question: And the “Jumping Mice/Survived Mice, Day 4 after stopping administration” value (Morphine-dependent Mice; 5 mg/g (so in the source) sc)?
Answer: 0/10

Question: And the “Jumping Mice/Survived Mice, Day 5 of treatment” value (Morphine-dependent Mice; 5 mg/g (so in the source) sc)?
Answer: 0/10

Question: With CCN1CC2(OC(=O)c3ccccc3NC(C)=O)CCC(OC)C34C1C(CC23)C1(O)CC(OC)C2CC4C1(O)C2OC (stereo not shown) [Lappaconitine hydrobromide, lappaconitine hydrobromide] as the molecule, how does the “drug dependence (conclusion of Table 4)” value (mice [1]; mouse jumping test) read?
Answer: does not cause drug dependence

Question: And the behaviour after administration (mice [2]; mouse, in vivo)?
Answer: looked quiet and immobile and showed no pilo-erection reaction

Question: What about the “jumping reaction after injection of allyl dromaran” value (mice [2]; mouse, in vivo) of the same molecule?
Answer: no jumping reaction

Question: And the “Jumping Mice/Survived Mice, Day 1 after stopping drug” value (Morphine-dependent Mice; [12])?
Answer: 0/10

Question: What about the “Jumping Mice/Survived Mice, Day 4 after stopping administration” value (Morphine-dependent Mice; [12]) of the same molecule?
Answer: 0/10

Question: And the “Jumping Mice/Survived Mice, Day 5 of treatment” value (Morphine-dependent Mice; [12])?
Answer: 1/10

Question: What about the “number of jumps of the one jumping mouse” value (Morphine-dependent Mice; footnote *^3, 0.45 mg/g (so in the source) sc group, Day 5) of the same molecule?
Answer: five

Question: With CCN1CC2(OC(=O)c3ccccc3NC(C)=O)CCC(OC)C34C1C(CC23)C1(O)CC(OC)C2CC4C1(O)C2OC (stereo not shown) [Lappaconitine] as the molecule, how does the “weight increase compared to control” value [3] read?
Answer: a little suppressed

Question: What about the “behaviour of morphine-withdrawn rats after injection” value (Morphine-dependent rats; rat, in vivo) of the same molecule?
Answer: still looked suppressive

Question: What about the “weight change of morphine-withdrawn rats after injection” value (Morphine-dependent rats; rat, in vivo) of the same molecule?
Answer: no weight increase was observed

Question: And the substitution for morphine (Morphine-dependent rats; rat, in vivo, sc, 8 mg/kg)?
Answer: did not act as a substitution for morphine

Question: And the “withdrawal symptoms after nalorphine” value (Macaca mulatta; 18 hours after discontinuing on day 29, 53, 59, 67 and 90, nalorphine 4 or 8 mg/kg sc)?
Answer: No withdrawal symptoms were observed

Question: And the “behavior and appetite after stopping injections” value (Macaca mulatta; 24 hours following stop on day 63 and day 92)?
Answer: no different behavior and appetite from that before stopping injection

Question: And the “dependence after long term use” value (Macaca mulatta; monkeys)?
Answer: does not cause dependence after long term use

Question: What about the “mice died of accumulated toxicity during the administration” value (mice [1]; initial 3.5 mg/kg, total 45.5 mg/kg in 2 days, of 10 mice) of the same molecule?
Answer: five

Question: What about the “jumping times of each mouse” value (mice [1]; mouse, in vivo) of the same molecule?
Answer: 0

Question: What about the “number of jumping mice” value (mice [1]; mouse, in vivo) of the same molecule?
Answer: 0

Question: And the “jumping times of each mouse” value (mice [1]; [13])?
Answer: 0

Question: What about the “number of jumping mice” value (mice [1]; [13]) of the same molecule?
Answer: 0

Question: What about the “recovery of cocaine-treated mice” value ([4]; mouse, in vivo) of the same molecule?
Answer: recovered to normal

Question: What about the “Histological and pathological examinations” value [5, 14] of the same molecule?
Answer: stimulating reaction, except a little edema and hydrodenaturation in the liver and increasing cerebral colloid cells

Question: And the electrocardiographic examination [5, 14]?
Answer: No obvious change

Question: What about the “toxic reaction during administration” value [5, 14] of the same molecule?
Answer: No toxic reaction

Question: What about the MTD ([5]; rhesus monkey, in vivo, monkey, sc twice a day, escalated from 0.1 mg/kg within 50 days, read-out: maximum tolerance dosage / highest tolerated dosage) of the same molecule?
Answer: 2 mg/kg

Question: What about the toxicity reactions ([6]; intraperitoneal, toxicity dosage) of the same molecule?
Answer: looked suppressive and immobile lying on stomach in cage, obvious suppression of respiration and showed convulsions before death

Question: And the LD50 ([6]; rat, in vivo, ip, intraperitoneal injection, read-out: LD50 (95 % confidence limit))?
Answer: 16.5 mg/kg

Question: And the “jumping times of each mouse” value (mice [2]; mouse, in vivo)?
Answer: 0.2

Question: And the “number of jumping mice” value (mice [2]; mouse, in vivo)?
Answer: 1

Question: And the “toxicity reactions at lethal dosage” value ([7]; lethal dosage)?
Answer: paroxysmal convulsion, respiration suppression until suffocation, and death

Question: And the LD50 ([7]; intravenous injection)?
Answer: 8.4 mg/kg

Question: And the LD50 ([7]; po, intra gasteria)?
Answer: 32.4 mg/kg

Question: And the LD50 ([7]; sc, subcutaneous injection)?
Answer: 11.7 mg/kg

Question: What about the toxicity reactions ([7]; toxicity dosages) of the same molecule?
Answer: paroxysmal restlessness, and foreleg tic

Question: And the electrocardiography examination [8]?
Answer: No obvious change

Question: And the “hepatic and renal function and histological and pathological examination of viscera” value [8]?
Answer: No change was observed

Question: What about the “weight increase compared to control” value [8] of the same molecule?
Answer: inhibited weight increase at different levels

Question: And the “effect on withdrawal symptoms of morphine-dependent monkeys” value ([9]; in vivo)?
Answer: could not relieve or weaken the above withdrawal symptoms

Question: And the substitute for morphine ([9]; in vivo, sc, 2 mg/kg)?
Answer: does not act as a substitute for morphine

Question: And the “toxic reaction and electrocardiography” value ([10]; 2 mg/kg sc, two monkeys)?
Answer: No toxic reaction and no effect on electrocardiography were observed

Question: What about the electrocardiography examination ([10]; 3 mg/kg sc) of the same molecule?
Answer: T wave had elevation, T wave and P wave fused, and R wave became smaller and notching

Question: And the toxic reactions ([10]; 3 mg/kg sc, 30 minutes after injection)?
Answer: restlessness, slobbering, increased swallowing, drooping eyelids, and rigidity of leg muscles

Question: And the “convulsion and death of one monkey” value ([10]; 3 mg/kg sc, from 45 minutes)?
Answer: The convulsion still continued until death after 1 hr

Question: And the “duration of toxic reaction in the other monkey” value ([10]; 3 mg/kg sc, no convulsion)?
Answer: 2 h

Question: And the “electrocardiography examination next day” value ([10]; 3 mg/kg sc, surviving monkey)?
Answer: normal

Question: With CN1CC[C@]23c4c5ccc(O)c4O[C@H]2[C@@H](O)C=C[C@H]3[C@H]1C5.Cl [Morphine, morphine hydrochloride, reference compound] as the molecule, how does the “average weight loss per rat” value (Morphine-dependent rats; 24 hours after discontinuing morphine (25 mg/kg sc twice a day, 12 weeks)) read?
Answer: 25 g

Question: And the “behaviour of morphine-withdrawn rats after injection” value (Morphine-dependent rats; morphine hydrochloride 25 mg/kg sc or lappaconitine hydrobromide 8 mg/kg sc)?
Answer: turned to being excited from being suppressive, moved increasingly, frequently took food and water

Question: And the “weight change of morphine-withdrawn rats after injection” value (Morphine-dependent rats; within 8 hours, morphine hydrochloride 25 mg/kg sc or lappaconitine hydrobromide 8 mg/kg sc)?
Answer: the weight increased to the level shown very quickly before stopping injection of morphine

Question: And the “jumping times of each mouse” value (mice [1]; nalorphine 50 mg/kg, 2 days: morphine initial 2.5 mg/kg (total 157.5), lappaconitine initial 3.5 mg/kg (total 35))?
Answer: 9

Question: And the “jumping times of each mouse” value (mice [2]; allyl-dromaran 10 mg/kg ip, 20 days: morphine 80 mg/kg (total 1600), lappaconitine 8.0 mg/kg (total 160))?
Answer: 34

Question: What about the “Withdrawal Syndrome, Nalorphine 0.5 mg/kg sc” value ([9]; Table 5, per monkey (No. 7, 8) and day) of the same molecule?
Answer: +

Question: What about the dependence in monkeys ([9]; sc twice a day until the 30th day) of the same molecule?
Answer: showed dependence on morphine

Question: What about the “effect on withdrawal symptoms of morphine-dependent monkeys” value ([9]; sc, lappaconitine 2 mg/kg, 18 hours after stopping morphine) of the same molecule?
Answer: obviously reduced or disappeared

Question: With CCN1CC2(OC(=O)c3ccccc3N)CCC(OC)C34C1C(CC23)C1(O)CC(OC)C2CC4C1(O)C2OC (stereo not shown) [N-deacetyllappaconitine hydrobromide, N-deacetyl-lappaconitine hydrobromide] as the molecule, how does the “Jumping Mice/Survived Mice, Day 1 after stopping drug” value (Morphine-dependent Mice; 5 mg/g (so in the source) sc) read?
Answer: 0/10

Question: And the “Jumping Mice/Survived Mice, Day 4 after stopping administration” value (Morphine-dependent Mice; 5 mg/g (so in the source) sc)?
Answer: 0/10

Question: What about the “Jumping Mice/Survived Mice, Day 5 of treatment” value (Morphine-dependent Mice; 5 mg/g (so in the source) sc) of the same molecule?
Answer: 0/10

Question: For COC(=O)[C@H]1[C@@H](OC(=O)c2ccccc2)C[C@@H]2CC[C@H]1N2C [cocaine, reference compound], which “abnormal signs during injection of cocaine” value ([4]; 10 mg/kg sc twice a day, 7 days) is on record?
Answer: anorexia, pilo-erection, and frequent walking with holding tail, and the like

Question: Which “dependence potential of 100 mg of oral methadone” value [11] does the source give for CCC(=O)C(CC(C)N(C)C)(c1ccccc1)c1ccccc1 (stereo not shown) [methadone] here?
Answer: equivalent to that of 10 mg of injected morphine

Question: With C=CCN1CC[C@]23c4c5ccc(O)c4O[C@H]2[C@@H](O)C=C[C@H]3[C@H]1C5 [nalorphine] as the molecule, how does the “effect of nalorphine on withdrawal symptoms” value ([9]; in vivo, sc) read?
Answer: the above symptoms would be more obvious
